Test results reported in patent US11214803B2, “Modulators of YAP1 expression” (Ionis Pharmaceuticals, Inc., priority 2019, dated 2022).
Strand notation (5' to 3'): a small letter for the sugar, then the base; units joined by * are phosphorothioate-linked, units joined directly phosphodiester-linked; [ ] holds rarer units or linkages, { } end groups; capitals alone tell only the bases. k = constrained ethyl (cEt); [5mC] = 5-methylcytosine; d = 2'-deoxy (DNA)

Columns and labels:
Yap1 mRNA [1] = assay: Dose-dependent inhibition of human Yap1 in A-431 cells (Example 8, 10,000 cells per well, RTS4814); type: cell-based; conditions: free uptake, approximately 48 hours, RTS4814; for Yap1 mRNA, % UTC: A-431 cells, 10,000 cells per well; for IC50: A-431 cells, linear regression on log/linear plot
Procedure, shortened: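 Yap1 mRNA, normalized to RIBOGREEN total RNA and expressed as % untreated control, was read with RTS4814 about 48 h after free-uptake oligonucleotide treatment of A-431 cells at 10,000 cells/well. IC50 derived by linear regression of log/linear data.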

Yap1 mRNA [2] = assay: Antisense inhibition of human Yap1 in A-431 cells by cEt gapmers, single dose (Example 2, RTS4814); type: cell-based; conditions: 3-10-3 cEt gapmers targeting SEQ ID NO.: 1, and 2
Procedure, shortened: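 A-431 cells (5,000/well) took up 2,000 nM 3-10-3 cEt gapmer by free uptake for ~48 h. Yap1 mRNA was quantified by qRT-PCR with primer probe set RTS4814, normalized to RIBOGREEN total RNA, and reported as % of untreated control.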

[3] = Table 32, Yap1 mRNA, percent of untreated control
[4] = Yap1 mRNA as percent of untreated control, A-431 cells, Table 30
[5] = Yap1 mRNA as percent of untreated control, A-431 cells, Table 31
[6] = Table 33, Yap1 mRNA, percent of untreated control

1076530 (kA*kG*kT*dA*dT*dA*dA*dA*dG*d[5mC]*dA*dG*dG*kG*k[5mC]*kA; antisense) [compound 1076530]
Yap1 mRNA, % UTC (Yap1 mRNA [1]; 31.3 nM): 53 % UTC | Yap1 mRNA, % UTC (Yap1 mRNA [1]; 125.0 nM): 26 % UTC | Yap1 mRNA, % UTC (Yap1 mRNA [1]; 500.0 nM): 11 % UTC | Yap1 mRNA, % UTC (Yap1 mRNA [1]; 2000.00 nM): 7 % UTC | IC50 (Yap1 mRNA [1]): < 20 nM | YAP1 (% UTC) (Yap1 mRNA [2]; [3]): 5 % UTC

1076466 (kA*kT*kT*dT*dA*dG*dA*dG*d[5mC]*dT*dT*dA*dA*kG*kG*kA; antisense) [compound 1076466]
Yap1 mRNA, % UTC (Yap1 mRNA [1]; 31.3 nM): 43 % UTC | Yap1 mRNA, % UTC (Yap1 mRNA [1]; 125.0 nM): 18 % UTC | Yap1 mRNA, % UTC (Yap1 mRNA [1]; 500.0 nM): 8 % UTC | Yap1 mRNA, % UTC (Yap1 mRNA [1]; 2000.00 nM): 6 % UTC | IC50 (Yap1 mRNA [1]): < 20 nM | YAP1 (% UTC) (Yap1 mRNA [2]; [3]): 5 % UTC

1076464 (k[5mC]*kA*kT*dA*dT*dA*d[5mC]*dA*dA*dT*dT*d[5mC]*dT*kG*k[5mC]*k[5mC]; antisense) [compound 1076464]
Yap1 mRNA, % UTC (Yap1 mRNA [1]; 31.3 nM): 36 % UTC | Yap1 mRNA, % UTC (Yap1 mRNA [1]; 125.0 nM): 10 % UTC | Yap1 mRNA, % UTC (Yap1 mRNA [1]; 500.0 nM): 3 % UTC | Yap1 mRNA, % UTC (Yap1 mRNA [1]; 2000.00 nM): 2 % UTC | IC50 (Yap1 mRNA [1]): < 20 nM | YAP1 (% UTC) (Yap1 mRNA [2]; [4]): 2 % UTC

1074608 (DNA kG*kT*kT*dA*d[5mC]*dA*dT*d[5mC]*dA*dT*d[5mC]*dT*d[5mC]*kT*kT*k[5mC]) [compound 1074608]
Yap1 mRNA, % UTC (Yap1 mRNA [1]; 31.3 nM): 49 % UTC | Yap1 mRNA, % UTC (Yap1 mRNA [1]; 125.0 nM): 20 % UTC | Yap1 mRNA, % UTC (Yap1 mRNA [1]; 500.0 nM): 9 % UTC | Yap1 mRNA, % UTC (Yap1 mRNA [1]; 2000.00 nM): 7 % UTC | IC50 (Yap1 mRNA [1]): < 20 nM | YAP1 (% UTC) (Yap1 mRNA [2]; [4]): 5 % UTC

1074417 (kT*k[5mC]*kT*dT*dT*dA*dG*dA*dG*d[5mC]*d[5mC]*dA*dA*k[5mC]*kT*kG; antisense) [compound 1074417]
Yap1 mRNA, % UTC (Yap1 mRNA [1]; 31.3 nM): 68 % UTC | Yap1 mRNA, % UTC (Yap1 mRNA [1]; 125.0 nM): 26 % UTC | Yap1 mRNA, % UTC (Yap1 mRNA [1]; 500.0 nM): 7 % UTC | Yap1 mRNA, % UTC (Yap1 mRNA [1]; 2000.00 nM): 3 % UTC | IC50 (Yap1 mRNA [1]): 100 nM | YAP1 (% UTC) (Yap1 mRNA [2]; [5]): 2 % UTC

1074801 (kA*k[5mC]*kA*dA*dA*dT*dA*dG*dT*dG*d[5mC]*dT*dT*kT*kG*kG; antisense) [compound 1074801]
Yap1 mRNA, % UTC (Yap1 mRNA [1]; 31.3 nM): 76 % UTC | Yap1 mRNA, % UTC (Yap1 mRNA [1]; 125.0 nM): 41 % UTC | Yap1 mRNA, % UTC (Yap1 mRNA [1]; 500.0 nM): 19 % UTC | Yap1 mRNA, % UTC (Yap1 mRNA [1]; 2000.00 nM): 12 % UTC | IC50 (Yap1 mRNA [1]): 100 nM | YAP1 (% UTC) (Yap1 mRNA [2]; [5]): 8 % UTC

1075089 (k[5mC]*kA*kT*dT*dT*dA*dT*dA*dG*dT*d[5mC]*dA*dG*kG*kT*kT; antisense) [compound 1075089]
Yap1 mRNA, % UTC (Yap1 mRNA [1]; 31.3 nM): 45 % UTC | Yap1 mRNA, % UTC (Yap1 mRNA [1]; 125.0 nM): 9 % UTC | Yap1 mRNA, % UTC (Yap1 mRNA [1]; 500.0 nM): 3 % UTC | Yap1 mRNA, % UTC (Yap1 mRNA [1]; 2000.00 nM): 3 % UTC | IC50 (Yap1 mRNA [1]): < 20 nM | YAP1 (% UTC) (Yap1 mRNA [2]; [5]): 2 % UTC

1074290 (antisense k[5mC]*kT*kG*dA*d[5mC]*dT*dG*dA*dT*dT*d[5mC]*dT*d[5mC]*kT*kG*kG) [compound 1074290]
Yap1 mRNA, % UTC (Yap1 mRNA [1]; 31.3 nM): 49 % UTC | Yap1 mRNA, % UTC (Yap1 mRNA [1]; 125.0 nM): 17 % UTC | Yap1 mRNA, % UTC (Yap1 mRNA [1]; 500.0 nM): 9 % UTC | Yap1 mRNA, % UTC (Yap1 mRNA [1]; 2000.00 nM): 7 % UTC | IC50 (Yap1 mRNA [1]): < 20 nM | YAP1 (% UTC) (Yap1 mRNA [2]; [3]): 5 % UTC

1076465 (kG*k[5mC]*kT*dT*dA*dA*dG*dG*dA*dA*dT*dA*dT*kA*k[5mC]*kA; antisense) [compound 1076465]
Yap1 mRNA, % UTC (Yap1 mRNA [1]; 31.3 nM): 72 % UTC | Yap1 mRNA, % UTC (Yap1 mRNA [1]; 125.0 nM): 32 % UTC | Yap1 mRNA, % UTC (Yap1 mRNA [1]; 500.0 nM): 14 % UTC | Yap1 mRNA, % UTC (Yap1 mRNA [1]; 2000.00 nM): 7 % UTC | IC50 (Yap1 mRNA [1]): 100 nM | YAP1 (% UTC) (Yap1 mRNA [2]; [5]): 5 % UTC

1074579 (DNA k[5mC]*k[5mC]*kA*d[5mC]*dT*dA*dT*dA*dA*dA*dG*d[5mC]*dT*kT*kA*kT) [compound 1074579]
Yap1 mRNA, % UTC (Yap1 mRNA [1]; 31.3 nM): 54 % UTC | Yap1 mRNA, % UTC (Yap1 mRNA [1]; 125.0 nM): 22 % UTC | Yap1 mRNA, % UTC (Yap1 mRNA [1]; 500.0 nM): 8 % UTC | Yap1 mRNA, % UTC (Yap1 mRNA [1]; 2000.00 nM): 5 % UTC | IC50 (Yap1 mRNA [1]): < 20 nM | YAP1 (% UTC) (Yap1 mRNA [2]; [6]): 6 % UTC

1076467 (kG*kT*kA*dT*dT*dT*dA*dG*dA*dG*d[5mC]*dT*dT*kA*kA*kG; antisense) [compound 1076467]
Yap1 mRNA, % UTC (Yap1 mRNA [1]; 31.3 nM): 24 % UTC | Yap1 mRNA, % UTC (Yap1 mRNA [1]; 125.0 nM): 6 % UTC | Yap1 mRNA, % UTC (Yap1 mRNA [1]; 500.0 nM): 3 % UTC | Yap1 mRNA, % UTC (Yap1 mRNA [1]; 2000.00 nM): 2 % UTC | IC50 (Yap1 mRNA [1]): < 20 nM | YAP1 (% UTC) (Yap1 mRNA [2]; [6]): 5 % UTC

1076370 (antisense kG*kA*kT*dT*dA*dT*dT*d[5mC]*dG*dG*dT*dA*dT*kT*kT*kT) [compound 1076370]
Yap1 mRNA, % UTC (Yap1 mRNA [1]; 31.3 nM): 46 % UTC | Yap1 mRNA, % UTC (Yap1 mRNA [1]; 125.0 nM): 12 % UTC | Yap1 mRNA, % UTC (Yap1 mRNA [1]; 500.0 nM): 4 % UTC | Yap1 mRNA, % UTC (Yap1 mRNA [1]; 2000.00 nM): 2 % UTC | IC50 (Yap1 mRNA [1]): < 20 nM | YAP1 (% UTC) (Yap1 mRNA [2]; [3]): 2 % UTC

1074610 (DNA kT*k[5mC]*kT*dA*dG*dT*dT*dA*d[5mC]*dA*dT*d[5mC]*dA*kT*k[5mC]*kT) [compound 1074610]
Yap1 mRNA, % UTC (Yap1 mRNA [1]; 31.3 nM): 57 % UTC | Yap1 mRNA, % UTC (Yap1 mRNA [1]; 125.0 nM): 20 % UTC | Yap1 mRNA, % UTC (Yap1 mRNA [1]; 500.0 nM): 10 % UTC | Yap1 mRNA, % UTC (Yap1 mRNA [1]; 2000.00 nM): 7 % UTC | IC50 (Yap1 mRNA [1]): < 20 nM | YAP1 (% UTC) (Yap1 mRNA [2]; [3]): 5 % UTC

1074419 (kA*kT*kT*d[5mC]*dT*dT*dT*dA*dG*dA*dG*d[5mC]*d[5mC]*kA*kA*k[5mC]; antisense) [compound 1074419]
Yap1 mRNA, % UTC (Yap1 mRNA [1]; 31.3 nM): 48 % UTC | Yap1 mRNA, % UTC (Yap1 mRNA [1]; 125.0 nM): 15 % UTC | Yap1 mRNA, % UTC (Yap1 mRNA [1]; 500.0 nM): 5 % UTC | Yap1 mRNA, % UTC (Yap1 mRNA [1]; 2000.00 nM): 3 % UTC | IC50 (Yap1 mRNA [1]): < 20 nM | YAP1 (% UTC) (Yap1 mRNA [2]; [6]): 4 % UTC

1074672 (antisense k[5mC]*k[5mC]*kA*dA*dG*dT*dA*dG*d[5mC]*dT*dT*dT*dG*kA*kT*k[5mC]) [compound 1074672]
Yap1 mRNA, % UTC (Yap1 mRNA [1]; 31.3 nM): 34 % UTC | Yap1 mRNA, % UTC (Yap1 mRNA [1]; 125.0 nM): 18 % UTC | Yap1 mRNA, % UTC (Yap1 mRNA [1]; 500.0 nM): 10 % UTC | Yap1 mRNA, % UTC (Yap1 mRNA [1]; 2000.00 nM): 7 % UTC | IC50 (Yap1 mRNA [1]): < 20 nM | YAP1 (% UTC) (Yap1 mRNA [2]; [4]): 6 % UTC

1074451 (kG*kA*k[5mC]*dT*dA*dA*dT*dG*dA*dT*dA*dG*d[5mC]*kA*k[5mC]*kT; antisense) [compound 1074451]
Yap1 mRNA, % UTC (Yap1 mRNA [1]; 31.3 nM): 63 % UTC | Yap1 mRNA, % UTC (Yap1 mRNA [1]; 125.0 nM): 26 % UTC | Yap1 mRNA, % UTC (Yap1 mRNA [1]; 500.0 nM): 8 % UTC | Yap1 mRNA, % UTC (Yap1 mRNA [1]; 2000.00 nM): 4 % UTC | IC50 (Yap1 mRNA [1]): 40 nM | YAP1 (% UTC) (Yap1 mRNA [2]; [6]): 6 % UTC
